# Laboratory results as given in publication PMC8657075 (Journal of biotechnology, 2021).
# How the values were obtained:
# [1] = target: T1, dopamine transporter (DAT) (Rattus norvegicus, UniProt P23977); assay: [3H]GBR […] radioligand displacement, rat striatal membranes; assay type: binding
# [2] = target: T1, dopamine transporter (DAT); assay: [3H]GBR […] radioligand displacement; assay type: binding
# T1 sequence (P23977 whole entry): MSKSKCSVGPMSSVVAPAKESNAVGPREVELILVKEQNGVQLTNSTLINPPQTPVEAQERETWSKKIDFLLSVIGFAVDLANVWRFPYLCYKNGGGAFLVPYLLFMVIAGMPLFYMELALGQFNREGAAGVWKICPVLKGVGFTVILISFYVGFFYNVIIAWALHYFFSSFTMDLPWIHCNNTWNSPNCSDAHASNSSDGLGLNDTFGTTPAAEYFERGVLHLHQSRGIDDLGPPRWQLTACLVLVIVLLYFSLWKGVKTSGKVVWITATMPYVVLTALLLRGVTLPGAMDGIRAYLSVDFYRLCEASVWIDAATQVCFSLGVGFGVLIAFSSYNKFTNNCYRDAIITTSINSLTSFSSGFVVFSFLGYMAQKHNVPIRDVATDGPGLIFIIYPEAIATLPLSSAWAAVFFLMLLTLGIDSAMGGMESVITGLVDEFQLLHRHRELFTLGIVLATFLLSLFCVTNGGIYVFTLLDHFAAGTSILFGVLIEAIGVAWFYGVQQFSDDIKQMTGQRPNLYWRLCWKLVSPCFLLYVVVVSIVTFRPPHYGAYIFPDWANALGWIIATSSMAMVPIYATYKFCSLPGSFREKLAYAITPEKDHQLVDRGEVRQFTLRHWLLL
Molecule,Ki [1],Ki [2]
CN1CCCC2C(c3ccccc3)C(C3=NCCCC3)C(c3ccccc3)CC21 (centres unmarked) [lobinaline],2.54 µM,–
lobinaline N-oxide,–,132 µM
